Assay results: patent US9890142B2, “PDE4 inhibitor” (Meiji Seika Pharma Co., Ltd., priority 2013, dated 2018)

What follows are compounds tested on PDE4 (assay: Evaluation of PDE4 inhibition (scintillation proximity assay)). Settings: inhibition rate relative to control, test compound at 1 μM.
Format: biochemical
Procedure: Test Example 1 Evaluation of PDE4 Inhibition
The PDE4 inhibitory activity was measured by using scintillation proximity assay (SPA) as follows: one in which a sample compound dissolved in dimethyl sulfoxide was diluted 10-fold with a buffer solution for reaction containing 50 mM Tris-HCl, pH 7.5, 8.3 mM MgCl2, 1.7 mM EDTA and 0.3 mg/mL bovine serum albumin (BSA) was added at 10 μL/well to a 96-well assay plate. Further, PDE4 diluted 750-fold with a buffer solution for reaction was added at 50 μL/well, then [2,8-^3H]-Adenosine-3′,5′-cyclic phosphate triethylammonium salt diluted 1000-fold with a buffer solution for reaction was added at 40 μL/well, and the plate was left standing at room temperature for 120 minutes. Thereafter, a suspension of RNA binding YSi-SPA Beads containing 200 mM ZnSO4 was added at 50 μL/well, and the plate was left standing at room temperature for 15 minutes to adsorb the enzyme reaction product onto the Beads. Thereafter, the radioactivity was measured with a liquid scintillation counter for 96-well plates. When one supplemented with only a buffer solution for reaction without adding the enzyme preparation was used as a blank and one supplemented with the enzyme preparation but supplemented with only dimethyl sulfoxide instead of the sample solution was used as a control, the inhibition rate of the test compound relative to the control was calculated according to the following calculation expression: Inhibition rate (%)={1−(Numeric value from the addition of each sample−Blank value)/(Control value−Blank value)}×100

In order of rising “PDE4 inhibitory activity (1 μM (%))” value:
1. CCN(CC)C(=O)c1cc(Cl)cc2nc(N3CCNC[C@@H]3C)oc12 [Example 97, (S)-5-Chloro-7-diethylaminocarbonyl-2-(2-methylpiperazin-1-yl)benzoxazole]  10%
2. CNC(=O)c1cc(Cl)cc2nc(N3CCNC[C@@H]3C)oc12 [Example 100, (S)-5-Chloro-7-methylaminocarbonyl-2-(2-methylpiperazin-1-yl)benzoxazole]  16%
3. C[C@H]1CNCCN1c1nc2cc(Cl)c(C(F)(F)F)c(-c3ccccn3)c2o1 [Example 85, (S)-5-Chloro-2-(2-methylpiperazin-1-yl)-7-(pyridin-2-yl)-6-(trifluoromethyl)benzoxazole]  26%
4. CCNC(=O)c1cc(Cl)cc2nc(N3CCNC[C@@H]3C)oc12 [Example 101, (S)-5-Chloro-7-ethylaminocarbonyl-2-(2-methylpiperazin-1-yl)benzoxazole]  27%
5. C[C@H]1CNCCN1c1nc2cc(Cl)cc(N3CCOC3=O)c2o1 [Example 72, (S)-5-Chloro-2-(2-methylpiperazin-1-yl)-7-(2-oxo-oxazolidin-3-yl)benzoxazole]  28%
6. C[C@H]1CNCCN1c1nc2cc(Cl)cc(N3CCCC3=O)c2o1 [Example 71, (S)-5-Chloro-2-(2-methylpiperazin-1-yl)-7-(2-oxo-pyrrolidin-1-yl)benzoxazole]  30%
7. C[C@H]1CNCCN1c1nc2cc(Cl)cc(Oc3nccs3)c2o1 [Example 77, (S)-5-Chloro-2-(2-methylpiperazin-1-yl)-7-(thiazol-2-yloxy)benzoxazole]  30%
8. Cc1cccnc1-c1cc(Cl)cc2nc(N3CCNC[C@@H]3C)oc12 [Example 68, (S)-5-Chloro-2-(2-methylpiperazin-1-yl)-7-(3-methylpyridin-2-yl)benzoxazole]  38%
9. C[C@H]1CNCCN1c1nc2cc(Cl)cc(Oc3ccccc3)c2o1 [Example 70, (S)-5-Chloro-2-(2-methylpiperazin-1-yl)-7-phenoxybenzoxazole]  38%
10. C[C@H]1CNCCN1c1nc2cc(Cl)cc(Cc3ccccc3)c2o1 [Example 75, (S)-7-Benzyl-5-chloro-2-(2-methylpiperazin-1-yl)benzoxazole]  45%
11. COc1cccnc1-c1cc(Cl)cc2nc(N3CCNC[C@@H]3C)oc12 [Example 79, (S)-5-Chloro-7-(3-methoxypyridin-2-yl)-2-(2-methylpiperazin-1-yl)benzoxazole]  53%
12. C[C@H]1CNCCN1c1nc2cc(Cl)cc(-c3ncccc3C#N)c2o1 [Example 66, (S)-5-Chloro-7-(3-cyanopyridin-2-yl)-2-(2-methylpiperazin-1-yl)benzoxazole]  57%
13. C[C@H]1CNCCN1c1nc2cc(Cl)cc(-c3ncc([N+](=O)[O-])s3)c2o1 [Example 78, (S)-5-Chloro-2-(2-methylpiperazin-1-yl)-7-(5-nitrothiazol-2-yl)benzoxazole]  58%
14. C[C@H]1CNCCN1c1nc2cc(Cl)c(F)c(-n3cccn3)c2o1 [Example 94, (S)-5-Chloro-6-fluoro-2-(2-methylpiperazin-1-yl)-7-(1H-pyrazol-1-yl)benzoxazole]  62%
15. Cc1nc(-c2cc(Cl)cc3nc(N4CCNC[C@@H]4C)oc23)cs1 [Example 69, (S)-5-Chloro-2-(2-methylpiperazin-1-yl)-7-(2-methylthiazol-4-yl)benzoxazole]  65%
16. C[C@H]1CNCCN1c1nc2cc(Cl)cc(-c3ccc(F)cc3)c2o1 [Example 81, (S)-5-Chloro-7-(4-fluorophenyl)-2-(2-methylpiperazin-1-yl)benzoxazole]  68%
17. C[C@H]1CNCCN1c1nc2cc(Cl)cc(-c3ccc(F)s3)c2o1 [Example 67, (S)-5-Chloro-7-(5-fluorothiophen-2-yl)-2-(2-methylpiperazin-1-yl)benzoxazole]  70%
18. C[C@H]1CNCCN1c1nc2cc(Cl)c(F)c(-c3ccccn3)c2o1 [Example 92, (S)-5-Chloro-6-fluoro-2-(2-methylpiperazin-1-yl)-7-(pyridin-2-yl)benzoxazole]  71%
19. CCCc1cc(Cl)cc2nc(N3CCNC[C@@H]3C)oc12 [Example 95, (S)-5-Chloro-2-(2-methylpiperazin-1-yl)-7-n-propylbenzoxazole]  71%
20. C[C@H]1CNCCN1c1nc2cc(Cl)cc(-c3ncsc3CO)c2o1 [Example 76, (S)-5-Chloro-7-(5-(hydroxymethyl)thiazol-4-yl)-2-(2-methylpiperazin-1-yl)benzoxazole]  73%
21. C[C@H]1CNCCN1c1nc2cc(Cl)cc(-c3ncc(C(N)=O)s3)c2o1 [Example 65, (S)-5-Chloro-7-(5-carbamoylthiazol-2-yl)-2-(2-methylpiperazin-1-yl)benzoxazole]  83%
22. C[C@H]1CNCCN1c1nc2cc(Cl)cc(-c3ncc(Cl)s3)c2o1 [Example 74, (S)-5-Chloro-7-(5-chlorothiazol-2-yl)-2-(2-methylpiperazin-1-yl)benzoxazole]  83%
23. C[C@H]1CNCCN1c1nc2cc(F)cc(-c3ccccn3)c2o1 [Example 102, (S)-5-Fluoro-2-(2-methylpiperazin-1-yl)-7-(pyridin-2-yl)benzoxazole]  85%
24. C[C@H]1CNCCN1c1nc2c(F)c(F)cc(-c3ccccn3)c2o1 [Example 89, (S)-4,5-Difluoro-2-(2-methylpiperazin-1-yl)-7-(pyridin-2-yl)benzoxazole]  88%
25. C[C@H]1CNCCN1c1nc2c(F)c(F)cc(-n3cccn3)c2o1 [Example 91, (S)-4,5-Difluoro-2-(2-methylpiperazin-1-yl)-7-(1H-pyrazol-1-yl)benzoxazole]  89%
26. C[C@H]1CNCCN1c1nc2c(OC(F)(F)F)c(Cl)cc(-c3ccccn3)c2o1 [Example 86, (S)-5-Chloro-2-(2-methylpiperazin-1-yl)-7-(pyridin-2-yl)-4-(trifluoromethoxy)benzoxazole]  91%
27. C[C@H]1CNCCN1c1nc2c(C(F)(F)F)c(Cl)cc(-n3cccn3)c2o1 [Example 83, (S)-5-Chloro-2-(2-methylpiperazin-1-yl)-7-(1H-pyrazol-1-yl)-4-(trifluoromethyl)benzoxazole]  92%
28. C[C@H]1CNCCN1c1nc2cc(Cl)cc(-c3ccc(F)cn3)c2o1 [Example 73, (S)-5-Chloro-7-(5-fluoropyridin-2-yl)-2-(2-methylpiperazin-1-yl)benzoxazole]  93%
29. C[C@H]1CNCCN1c1nc2c(C(F)(F)F)c(Cl)cc(-c3ccccn3)c2o1 [Example 82, (S)-5-Chloro-2-(2-methylpiperazin-1-yl)-7-(pyridin-2-yl)-4-(trifluoromethyl)benzoxazole]  94%
30. C[C@H]1CNCCN1c1nc2c(C(F)(F)F)c(Cl)cc(-c3nccs3)c2o1 [Example 84, (S)-5-Chloro-2-(2-methylpiperazin-1-yl)-7-(thiazol-2-yl)-4-(trifluoromethyl)benzoxazole]  95%
31. C[C@H]1CNCCN1c1nc2c(OC(F)(F)F)c(Cl)cc(-n3cccn3)c2o1 [Example 88, (S)-5-Chloro-2-(2-methylpiperazin-1-yl)-7-(1H-pyrazol-1-yl)-4-(trifluoromethoxy)benzoxazole]  95%
32. C[C@H]1CNCCN1c1nc2cc(Cl)c(F)c(-c3nccs3)c2o1 [Example 93, (S)-5-Chloro-6-fluoro-2-(2-methylpiperazin-1-yl)-7-(thiazol-2-yl)benzoxazole]  95%
33. C[C@H]1CNCCN1c1nc2c(OC(F)(F)F)c(Cl)cc(-c3nccs3)c2o1 [Example 87, (S)-5-Chloro-2-(2-methylpiperazin-1-yl)-7-(thiazol-2-yl)-4-(trifluoromethoxy)benzoxazole]  96%
34. C[C@H]1CNCCN1c1nc2c(F)c(F)cc(-c3nccs3)c2o1 [Example 90, (S)-4,5-Difluoro-2-(2-methylpiperazin-1-yl)-7-(thiazol-2-yl)benzoxazole]  96%
35. C[C@H]1CNCCN1c1nc2cc(F)cc(-c3nccs3)c2o1 [Example 103, (S)-5-Fluoro-2-(2-methylpiperazin-1-yl)-7-(thiazol-2-yl)benzoxazole]  96%

For `C[C@H]1CNCCN1c1nc2cc(Cl)cc(C(=O)N(C)C)c2o1` [Example 96, (S)-5-Chloro-7-dimethylaminocarbonyl-2-(2-methylpiperazin-1-yl)benzoxazole], the “PDE4 inhibitory activity (1 μM (%))” value was less than 10%.
For `C[C@H]1CNCCN1c1nc2cc(Cl)cc(C(=O)NO)c2o1` [Example 98, (S)-5-Chloro-7-hydroxyaminocarbonyl-2-(2-methylpiperazin-1-yl)benzoxazole], the “PDE4 inhibitory activity (1 μM (%))” value was less than 10%.
For `C[C@H]1CNCCN1c1nc2cc(Cl)cc(C(=O)O)c2o1` [Example 99, (S)-5-Chloro-7-carboxy-2-(2-methylpiperazin-1-yl)benzoxazole], the “PDE4 inhibitory activity (1 μM (%))” value was less than 10%.
